Each structure is given as a SMILES string. “And” between values parts separate entries of the source, which are not always exact repeats. Equal entries are not always repeated.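 Grown in 96-well plates, cells were treated for 48 hours with each compound at five concentrations. Insufficient inhibition: endpoint recorded as highest concentration tested. Abbreviation: GI50, concentration required for 50% inhibition of growth. TGI: total growth inhibition.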 Bounds are passed on as bounds.

Some test systems named below: COLO 205 colon; HOP-62 NSCLC; HT29 colon; M14 melanoma; NCI-H226 lung; NCI-H522 lung; OVCAR-4 ovarian; SK-MEL-2 melanoma; TK-10 renal; KM12 colon.
Common to all, as to assay: NCI-60 cell line screen, 48 h

Take `N#CC1(C#N)C2C=CC(C3CC=CC32)C1(C#N)C#N` (configuration not stated): the GI50 in the test with COLO 205 colon is 5.5 µM; in the test with M14 melanoma, 8.72 µM; in the test with OVCAR-4 ovarian it was 9.34 µM. Also, the TGI is 4.3 µM and 13.5 µM in the test on COLO 205 colon; 33.3 µM in the test on HOP-62 NSCLC; 21.9 µM in the test on HT29 colon; 3.74 µM and 16 µM in the test on M14 melanoma; over 50 µM in the test on NCI-H226 lung; 3.18 µM in the test with NCI-H522 lung. Moreover, the TGI in the test with OVCAR-4 ovarian was 9.16 µM and 18.7 µM; in the test on SK-MEL-2 melanoma, 32.1 µM; in the test with TK-10 renal, 3.61 µM.
As to `O=C(/C=C/c1cccnc1)c1ccccc1`, the GI50 is 13.9 µM in the test on COLO 205 colon; 13.7 µM in the test on HOP-62 NSCLC; 2.31 µM in the test on HT29 colon; 2.33 µM in the test on KM12 colon; 14.6 µM in the test on NCI-H226 lung; 1.67 µM with NCI-H522 lung. The GI50 is 13 µM in the test with OVCAR-4 ovarian, 13.5 µM in the test on SK-MEL-2 melanoma and 13.9 µM in the test on TK-10 renal. Further, the TGI came out at 28.8 µM in the test with COLO 205 colon; 26.8 µM with HOP-62 NSCLC; 5.92 µM with HT29 colon; 6.87 µM with KM12 colon; 28.1 µM with NCI-H226 lung; 4.65 µM in the test with NCI-H522 lung. Besides, the TGI in the test with OVCAR-4 ovarian is 26.5 µM; in the test with SK-MEL-2 melanoma, 27 µM; in the test on TK-10 renal it was 27.1 µM.
In the case of `NNC(=S)N/N=C/c1ccccn1`, the GI50 was 2.39 µM in the test with COLO 205 colon; 1.44 µM in the test with HOP-62 NSCLC; 3.54 µM in the test on HT29 colon; 2.62 µM in the test on KM12 colon; 2.41 µM in the test on NCI-H226 lung; 0.258 µM with NCI-H522 lung. The figures for the GI50 in the test with OVCAR-4 ovarian, in the test with SK-MEL-2 melanoma and with TK-10 renal were 1.67 µM, 2.86 µM and 1.96 µM, respectively. Besides, the TGI in the test with COLO 205 colon is over 100 µM; in the test with HOP-62 NSCLC it was 35.3 µM; with HT29 colon it was over 100 µM; in the test with KM12 colon, over 100 µM; in the test with NCI-H226 lung it was 13.8 µM; with NCI-H522 lung, 0.859 µM. In addition, the TGI in the test with OVCAR-4 ovarian, with SK-MEL-2 melanoma and with TK-10 renal was over 100 µM throughout.
For the compound `CCOC(=O)c1sc(Nc2cc(Cl)ccc2Cl)nc1C`, the TGI with COLO 205 colon, in the test with HOP-62 NSCLC, in the test with HT29 colon, in the test with KM12 colon, in the test with NCI-H226 lung and in the test with NCI-H522 lung was over 100 µM in each case. Further, the TGI with OVCAR-4 ovarian, with SK-MEL-2 melanoma and with TK-10 renal was over 100 µM throughout.
Take `Cc1ccc([I+]c2ccc(C)cc2)cc1`: the GI50 is 6.93 µM in the test with COLO 205 colon; 0.887 µM with HT29 colon; 4.27 µM in the test with KM12 colon; 10.8 µM with M14 melanoma; 17.8 µM in the test with NCI-H226 lung; 12.3 µM in the test on NCI-H522 lung. The GI50 in the test on OVCAR-4 ovarian was 7.75 µM; with SK-MEL-2 melanoma, 14.1 µM; in the test with TK-10 renal, 6.63 µM. The TGI in the test with COLO 205 colon was 95.2 µM; with HT29 colon, 27.4 µM; with KM12 colon, 52.2 µM; with M14 melanoma, over 100 µM; in the test with NCI-H226 lung it was over 100 µM; in the test on NCI-H522 lung, over 100 µM. In addition, the TGI is over 100 µM in the test with OVCAR-4 ovarian, 94.4 µM in the test with SK-MEL-2 melanoma and over 100 µM with TK-10 renal.
Take `CCOC(=O)Cc1csc(Nc2nc(O)c(C3=c4ccccc4=NC3=O)s2)n1`: the GI50 in the test with COLO 205 colon was 47.1 µM; in the test with HOP-62 NSCLC it was 20.6 µM; with HT29 colon, 46 µM; with KM12 colon it was 20.4 µM; in the test with NCI-H226 lung, 21.3 µM; in the test on NCI-H522 lung, 27.2 µM. In addition, the GI50 with OVCAR-4 ovarian is 42.3 µM; with SK-MEL-2 melanoma, 25.7 µM; in the test with TK-10 renal it was 44.7 µM. For the same compound, the TGI was over 100 µM in the test with COLO 205 colon; 39.5 µM in the test on HOP-62 NSCLC; over 100 µM in the test with HT29 colon; 68.9 µM in the test on KM12 colon; 42.8 µM with NCI-H226 lung; 97.6 µM in the test with NCI-H522 lung. Moreover, the TGI with OVCAR-4 ovarian, in the test with SK-MEL-2 melanoma and in the test on TK-10 renal was over 100 µM in each case.
In the case of `O=C(CSc1nc2ccc([N+](=O)[O-])cc2[nH]1)Nc1ccc([N+](=O)[O-])cc1`, the GI50 in the test on HOP-62 NSCLC is 2.32 µM; with HT29 colon, 2.82 µM; with KM12 colon, 2.65 µM; in the test on M14 melanoma, 2.73 µM; with NCI-H226 lung, 2 µM; with NCI-H522 lung, 1.69 µM. The GI50 was 1.92 µM with OVCAR-4 ovarian, 1.97 µM in the test on SK-MEL-2 melanoma and 3.47 µM in the test on TK-10 renal. The TGI was 12.1 µM with HOP-62 NSCLC; 10.6 µM with HT29 colon; 12.9 µM in the test with KM12 colon; 19.9 µM in the test with M14 melanoma; 7.88 µM in the test with NCI-H226 lung; 9.01 µM in the test with NCI-H522 lung. For the same compound, the figures for the TGI in the test with OVCAR-4 ovarian, in the test on SK-MEL-2 melanoma and in the test with TK-10 renal were 29.3 µM, 5.81 µM and 11 µM, respectively.
`COC1OC(CO)C(O)C(NC(=O)N(C)N=O)C1O` (configuration not stated): the TGI in the test with COLO 205 colon, in the test with HT29 colon, in the test on KM12 colon, in the test on M14 melanoma, in the test on NCI-H226 lung and in the test on NCI-H522 lung was over 100 µM in each case. Moreover, the TGI in the test on OVCAR-4 ovarian, in the test on SK-MEL-2 melanoma and in the test on TK-10 renal was over 100 µM throughout.
For `Cc1cc2c(=O)cc(-c3ccc(Cl)c(Cl)c3)oc2c(C(=O)O)c1C`, the TGI in the test with COLO 205 colon, with HT29 colon, in the test on KM12 colon, in the test on M14 melanoma, in the test with NCI-H226 lung and with NCI-H522 lung was over 100 µM throughout. Further, the TGI with OVCAR-4 ovarian, in the test on SK-MEL-2 melanoma and in the test on TK-10 renal was over 100 µM each time.
As to `CN(CC(=O)O)S(=O)(=O)c1ccc(Cl)cc1`, the TGI in the test with COLO 205 colon, in the test on HT29 colon, with KM12 colon, in the test on M14 melanoma, in the test on NCI-H226 lung and in the test on NCI-H522 lung was over 100 µM each time. The TGI with OVCAR-4 ovarian, in the test with SK-MEL-2 melanoma and with TK-10 renal was over 100 µM throughout.
As for `Cc1cc2c(=O)cc(-c3ccc(Cl)cc3Cl)oc2c(C(=O)O)c1C`, the TGI with COLO 205 colon, with HT29 colon, in the test with KM12 colon, with M14 melanoma, with NCI-H226 lung and with NCI-H522 lung was over 100 µM in each case. Besides, the TGI in the test on OVCAR-4 ovarian, in the test on SK-MEL-2 melanoma and in the test with TK-10 renal was over 100 µM in each case.

The record behind these values is PubChem BioAssay (NCI).
